Test results reported in US8680145B1, “Compositions and methods for treatment of fear of medical procedures” (priority 2013, dated 2014).

How the values were obtained:
[1] = tested on: subject with dental phobia; assay: Routine dental checkup (cleaning and examination) of a subject with dental phobia after proglumide (Example 1); assay type: in vivo, human
Source text: Proglumide was obtained from commercial suppliers and/or pharmacies, and loaded into capsules. A subject with dental phobia, who had not been to a dentist in many years, agreed to undergo a routine dental checkup visit (cleaning and examination), and to take proglumide prior to the dental visit. […] Furthermore, the subject was willing to return for a follow-up visit within one week in order to replace an aged filling, a procedure that was not deemed urgent and easily could have been delayed.

[2] = tested on: subject with dental phobia; assay: Replacement of an aged metal filling in the same subject after proglumide (Example 2); assay type: in vivo, human; conditions: capsule 200 mg proglumide 90 minutes prior; local anesthetic given by dentist
Experimental: Proglumide was obtained from commercial suppliers and/or pharmacies, and loaded into capsules. The same subject as in Example 1 returned to the dentist five days after the dental checkup of Example 1 in order to replace an aged metal filling. Again, proglumide was administered to the subject in advance of the appointment. […] The dentist administered a local anesthetic (e.g., lidocaine) painkiller as part of the procedure for replacing the filling. The residual discomfort following the procedure, including after the numbness wore off, was mild.

[3] = tested on: human patients; conditions: cited from earlier work
[4] = tested on: rats; conditions: opiate-naïve and morphine-tolerant rats (Watkins 1985); cited from earlier work
[5] = cited from earlier work
[6] = chronic administration (Kellstein 1990); cited from earlier work

CCCN(CCC)C(=O)C(CCC(=O)O)NC(=O)c1ccccc1 (stereo not shown) [proglumide, Proglumide]
Total discomfort ([1]; capsule 100 mg proglumide ninety minutes prior to dental appointment): low enough that the subject would be willing to return to a regular dental checkup schedule
Subject-reported pain during calculus removal ([1]; capsule 100 mg proglumide ninety minutes prior to dental appointment, relative to previous dental visits without proglumide): substantially reduced
Post-checkup pain (tender gums, sensitivity while chewing) ([1]; capsule 100 mg proglumide ninety minutes prior, relative to after previous dental checkups): significantly reduced
Residual discomfort following the procedure, including after the numbness wore off [2]: mild
Augmentation of morphine analgesia, treatment vs control groups ([3]; cancer pain management (Bernstein 1998) and post-operative patients (Lehmann 1989)): no difference
Analgesic efficacy of morphine ([3]; human patients with chronic pain (McCleane 1998)): enhances
Morphine analgesia [4]: potentiates
Placebo analgesia ([5]; Benedetti 1995): enhance
Nocebo hyperalgesia ([5]; Benedetti 2006): block
Efficacy as a long-term adjunct to opiate treatment for chronic pain [6]: ineffective
